# Measured values from patent US20100204203A1, “Chemical Compounds 637: Pyridopyrimidinediones as PDE4 Inhibitors” (priority 2007, published 2010).
# Molecular target: recombinant Human Phosphodiesterase B2 (PDE4B2) (Homo sapiens, UniProt Q07343)
# Assay: Human Phosphodiesterase B2 Radiometric Assay (yttrium silicate SPA beads, [3H]cyclic AMP)
# Format: biochemical
# Settings: recombinant human PDE4B2, radiometric SPA assay, 8 nM [3H]cyclic AMP; read-out: PDE4B2 pIC50 (converted)
# How it was run: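 Read-out is scintillation proximity: yttrium silicate beads (with 18 mM ZnSO4, added to stop the reaction) bind 5′AMP formed from 8 nM [3H]cAMP over 20 min. Beforehand, compound and 0.1 mg/mL enzyme were preincubated 30 min at 30 °C in pH 7.5 HEPES buffer with MgCl2, EGTA and Brij 35; pIC50 values were curve-fitted.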
# Sequence of recombinant Human Phosphodiesterase B2 (PDE4B2) (Q07343 1-564 isoform Q07343-2): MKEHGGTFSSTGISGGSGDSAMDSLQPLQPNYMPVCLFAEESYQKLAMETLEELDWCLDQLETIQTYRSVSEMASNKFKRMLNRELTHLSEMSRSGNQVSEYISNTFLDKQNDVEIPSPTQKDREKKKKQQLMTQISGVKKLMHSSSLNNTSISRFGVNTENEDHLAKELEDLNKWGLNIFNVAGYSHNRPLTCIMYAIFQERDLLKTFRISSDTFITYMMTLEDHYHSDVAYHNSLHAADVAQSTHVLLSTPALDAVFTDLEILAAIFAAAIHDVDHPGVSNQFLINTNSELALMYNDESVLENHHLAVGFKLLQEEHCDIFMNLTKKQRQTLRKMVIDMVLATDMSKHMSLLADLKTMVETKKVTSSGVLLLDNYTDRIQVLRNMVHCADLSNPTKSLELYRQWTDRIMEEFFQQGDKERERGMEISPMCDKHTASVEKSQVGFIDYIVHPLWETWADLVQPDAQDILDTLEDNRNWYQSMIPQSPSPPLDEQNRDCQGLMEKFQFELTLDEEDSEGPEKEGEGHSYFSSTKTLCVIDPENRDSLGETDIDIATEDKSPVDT
row,SMILES,IC50 [nM]
1,"CN1CCCN(Cc2ccc(-c3cccc(-n4c(=O)n([C@H]5CC[C@@H](NC(=O)CCN6CCCCC6)CC5)c(=O)c5cc(F)cnc54)c3)cc2)CC1 [Example 293, N-{cis-4-[6-fluoro-1-{4′-[(4-methyl-1,4-diazepan-1-yl)methyl]biphenyl-3-yl}-2,4-dioxo-1,4-dihydropyrido[2,3-d]pyrimidin-3(2H)-yl]cyclohexyl}-3-piperidin-1-ylpropanamide]",2
2,"CC(C)(C)OC(=O)NCc1ccc(-c2cccc(-n3c(=O)n([C@H]4CC[C@@H](NC(=O)c5cn6cc(F)ccc6n5)CC4)c(=O)c4cc(F)cnc43)c2)cc1 [Example 21, tert-butyl ({3′-[6-fluoro-3-(cis-4-{[(6-fluoroimidazo[1,2-a]pyridin-2-yl)carbonyl]amino}cyclohexyl)-2,4-dioxo-3,4-dihydropyrido[2,3-d]pyrimidin-1(2H)-yl]biphenyl-4-yl}methyl)carbamate.]",0.0501
3,"Cc1cc(C)n2nc(C(=O)N[C@H]3CC[C@@H](n4c(=O)c5cc(F)cnc5n(-c5cccc(-c6ccc(CN7CCC(N8CCCCC8)CC7)cc6)c5)c4=O)CC3)cc2n1 [Example 362, N-{cis-4-[1-[4′-(1,4′-bipiperidin-1′-ylmethyl)biphenyl-3-yl]-6-fluoro-2,4-dioxo-1,4-dihydropyrido[2,3-d]pyrimidin-3(2H)-yl]cyclohexyl}-5,7-dimethylpyrazolo[1,5-a]pyrimidine-2-carboxamide]",0.0501
4,"Cc1cnc(C(=O)N[C@H]2CC[C@@H](n3c(=O)c4cc(F)cnc4n(-c4cccc(-c5ccc(CN6CCC(N7CCCCC7)CC6)cc5)c4)c3=O)CC2)cn1 [Example 297, N-{cis-4-[1-[4′-(1,4′-bipiperidin-1′-ylmethyl)biphenyl-3-yl]-6-fluoro-2,4-dioxo-1,4-dihydropyrido[2,3-d]pyrimidin-3(2H)-yl]cyclohexyl}-5-methylpyrazine-2-carboxamide]",0.0316
5,"CN(C)Cc1ccc(-c2cccc(-n3c(=O)n([C@H]4CC[C@@H](NCc5cn6ccccc6n5)CC4)c(=O)c4cc(F)cnc43)c2)cc1 [Example 343, 1-{4′-[(dimethylamino)methyl]biphenyl-3-yl}-6-fluoro-3-{cis-4-[(imidazo[1,2-a]pyridin-2-ylmethyl)amino]cyclohexyl}pyrido[2,3-d]pyrimidine-2,4(1H,3H)-dione]",2
6,"O=c1c2cc(F)cnc2n(-c2cccc(-c3ccc(O)cc3CN3CCOCC3)c2)c(=O)n1[C@H]1CC[C@@H](NCc2ncc3ccccn23)CC1 [Example 374, 6-fluoro-1-[4′-hydroxy-2′-(morpholin-4-ylmethyl)biphenyl-3-yl]-3-{cis-4-[(imidazo[1,5-a]pyridin-3-ylmethyl)amino]cyclohexyl}pyrido[2,3-d] pyrimidine-2,4(1H,3H)-dione]",0.0631
7,"CCN(CC)Cc1ccc(-c2cccc(-n3c(=O)n([C@H]4CC[C@@H](NC(=O)C5(N(C)C)CC5)CC4)c(=O)c4cc(F)cnc43)c2)cc1 [Example 127, N-{cis-4-[1-{4′-[(diethylamino)methyl]biphenyl-3-yl}-6-fluoro-2,4-dioxo-1,4-dihydropyrido[2,3-d]pyrimidin-3(2H)-yl]cyclohexyl}-1-(dimethylamino)cyclopropanecarboxamide]",0.2
8,"O=c1c2cc(F)cnc2n(-c2cccc(-c3ccc(O)cc3CN3CCOCC3)c2)c(=O)n1[C@H]1CC[C@@H](NCc2cc(F)ccc2F)CC1 [Example 282, 3-{cis-4-[(2,5-difluorobenzyl)amino]cyclohexyl}-6-fluoro-1-[4′-hydroxy-2′-(morpholin-4-ylmethyl)biphenyl-3-yl]pyrido[2,3-d]pyrimidine-2,4(1H,3H)-dione]",0.794
9,"Cc1cccc2nc(CN[C@H]3CC[C@@H](n4c(=O)c5cc(F)cnc5n(-c5cccc(-c6ccc(O)cc6CN6CCOCC6)c5)c4=O)CC3)cn12 [Example 335, 6-fluoro-1-[4′-hydroxy-2′-(morpholin-4-ylmethyl)biphenyl-3-yl]-3-(cis-4-{[(5-methylimidazo[1,2-c]pyridin-2-yl)methyl]amino}cyclohexyl)pyrido[2,3-d]pyrimidine-2,4(1H,3H)-dione]",0.00794
10,"CCCNC1(C(=O)N[C@H]2CC[C@@H](n3c(=O)c4cc(F)cnc4n(-c4cccc(-c5ccccc5CN5CCOCC5)c4)c3=O)CC2)CCCC1 [Example 275, N-{cis-4-[6-Fluoro-1-[2′-(morpholin-4-ylmethyl)biphenyl-3-yl]-2,4-dioxo-1,4-dihydropyrido[2,3-d]pyrimidin-3(2H)-yl]cyclohexyl}-1-(propylamino)cyclopentanecarboxamide]",3.98
11,"O=c1c2cc(F)cnc2n(-c2cccc(-c3cc(O)ccc3CN3CCOCC3)c2)c(=O)n1[C@H]1CC[C@@H](NCc2cn3cc(F)ccc3n2)CC1 [Example 337, 6-fluoro-3-(cis-4-{[(6-fluoroimidazo[1,2-a]pyridin-2-yl)methyl]amino}cyclohexyl)-1-[5′-hydroxy-2′-(morpholin-4-ylmethyl)biphenyl-3-yl]pyrido[2,3-d]pyrimidine-2,4(1H,3H)-dione]",0.1

# Second part, the compound after the results:
row,IC50 [nM],SMILES
1,0.0501,"C[C@@H]1CN(Cc2ccc(-c3cccc(-n4c(=O)n([C@H]5CC[C@@H](NC(=O)c6nc7ccccc7[nH]6)CC5)c(=O)c5cc(F)cnc54)c3)cc2)C[C@H](C)N1 [Example 305, N-{cis-4-[1-(4′-{[(3R,5S)-3,5-dimethylpiperazin-1-yl]methyl}biphenyl-3-yl)-6-fluoro-2,4-dioxo-1,4-dihydropyrido[2,3-d]pyrimidin-3(2H)-yl]cyclohexyl}-1H-benzimidazole-2-carboxamide]"
2,0.0794,"CNCCNCc1ccc(-c2cccc(-n3c(=O)n([C@H]4CC[C@@H](NC(=O)c5cn6cc(F)ccc6n5)CC4)c(=O)c4cc(F)cnc43)c2)cc1 [Example 64, 6-fluoro-N-{cis-4-[6-fluoro-1-[4′-({[2-(methylamino)ethyl]amino}methyl)biphenyl-3-yl]-2,4-dioxo-1,4-dihydropyrido[2,3-a]pyrimidin-3(2H)-yl]cyclohexyl}imidazo[1,2-a]pyridine-2-carboxamide]"
3,0.0316,"C[C@@H]1CN(Cc2ccc(-c3cccc(-n4c(=O)n([C@H]5CC[C@@H](NC(=O)c6ccc7ccccc7n6)CC5)c(=O)c5cc(F)cnc54)c3)cc2)C[C@H](C)N1 [Example 300, N-{cis-4-[1-(4′-{[(3R,5S)-3,5-dimethylpiperazin-1-yl]methyl}biphenyl-3-yl)-6-fluoro-2,4-dioxo-1,4-dihydropyrido[2,3-d]pyrimidin-3(2H)-yl]cyclohexyl} quinoline-2-carboxamide]"
4,0.0126,"Cc1cccc2nc(C(=O)N[C@H]3CC[C@@H](n4c(=O)c5cc(F)cnc5n(-c5cccc(-c6ccc(CN7CCNCC7)cc6)c5)c4=O)CC3)cn12 [Example 111, N-{cis-4-[6-fluoro-2,4-dioxo-1-[4′-(piperazin-1-ylmethyl)biphenyl-3-yl]-1,4-dihydropyrido[2,3-d]pyrimidin-3(2H)-yl]cyclohexyl}-5-methylimidazo[1,2-a]pyridine-2-carboxamide]"
5,0.0126,"CN1CCCN(Cc2ccc(-c3cccc(-n4c(=O)n([C@H]5CC[C@@H](NC(=O)c6cnc7ccccc7n6)CC5)c(=O)c5cc(F)cnc54)c3)cc2)CC1 [Example 358, N-{cis-4-[6-fluoro-1-{4′-[(4-methyl-1,4-diazepan-1-yl)methyl]biphenyl-3-yl}-2,4-dioxo-1,4-dihydropyrido[2,3-d]pyrimidin-3(2H)-yl]cyclohexyl} quinoxaline-2-carboxamide]"
6,0.0316,"O=C(N[C@H]1CC[C@@H](n2c(=O)c3cc(F)cnc3n(-c3cccc(-c4ccc(CN5CCCNCC5)cc4)c3)c2=O)CC1)c1cc2ccccc2cn1 [Example 353, N-{cis-4-[1-[4′-(1,4-diazepan-1-ylmethyl)biphenyl-3-yl]-6-fluoro-2,4-dioxo-1,4-dihydropyrido[2,3-d]pyrimidin-3(2H)-yl]cyclohexyl} isoquinoline-3-carboxamide]"
7,0.316,"CC(C)N1CCN(Cc2ccc(-c3cccc(-n4c(=O)n([C@H]5CC[C@@H](NC(=O)c6nccn6C)CC5)c(=O)c5cc(F)cnc54)c3)cc2)CC1 [Example 239, N-{cis-4-[6-fluoro-1-{4′-[(4-isopropylpiperazin-1-yl)methyl]biphenyl-3-yl}-2,4-dioxo-1,4-di-hydropyrido[2,3-d]pyrimidin-3(2H)-yl]cyclohexyl}-1-methyl-1H-imidazole-2-carboxamide]"
8,0.0126,"O=C(N[C@H]1CC[C@@H](n2c(=O)c3cc(F)cnc3n(-c3cccc(-c4ccc(CN5CCOCC5)cc4)c3)c2=O)CC1)c1cn2cc(F)ccc2n1 [Example 28, 6-fluoro-N-{cis-4-[6-fluoro-1-[4′-(morpholin-4-ylmethyl)biphenyl-3-yl]-2,4-dioxo-1,4-dihydropyrido[2,3-d]pyrimidin-3(2H)-yl]cyclohexyl}imidazo[1,2-a]pyridine-2-carboxamide.]"
9,0.251,"O=c1c2cc(F)cnc2n(-c2cccc(-c3ccc(CN4CCCOCC4)cc3)c2)c(=O)n1[C@H]1CC[C@@H](NCc2cn3cc(F)ccc3n2)CC1 [Example 338, 6-fluoro-3-(cis-4-{[(6-fluoroimidazo[1,2-a]pyridin-2-yl)methyl]amino}cyclohexyl)-1-[4′-(1,4-oxazepan-4-ylmethyl)biphenyl-3-yl]pyrido[2,3-d]pyrimidine-2,4(1H,3H)-dione]"
10,0.02,"O=C(N[C@H]1CC[C@@H](n2c(=O)c3cc(F)cnc3n(-c3cccc(-c4ccc(OCCN5CCCC5)cc4)c3)c2=O)CC1)c1cn2cc(F)ccc2n1 [Example 79, 6-fluoro-N-{cis-4-[6-fluoro-2,4-dioxo-1-[4′-(2-pyrrolidin-1-ylethoxy)biphenyl-3-yl]-1,4-dihydropyrido[2,3-d]pyrimidin-3(2H)-yl]cyclohexyl}imidazo[1,2-a]pyridine-2-carboxamide]"
